Results published in PubChem BioAssay (NCI).
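GI50: concentration for 50% inhibition of growth. TGI marks complete inhibition of growth.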

Legend:
Experiment in all cases: NCI-60 cell line screen, 384-well format
[1] = test system: NCI-H322M lung
[2] = test system: NCI-H460 NSCLC
[3] = test system: NCI-H522 lung
[4] = test system: NCI/ADR-RES ovarian
[5] = test system: OVCAR-3 ovarian
[6] = test system: OVCAR-4 ovarian
[7] = test system: OVCAR-5 ovarian
[8] = test system: OVCAR-8 ovarian
[9] = test system: PC-3 prostate
[10] = test system: RPMI-8226 leukemia
[11] = test system: RXF 393 renal
[12] = test system: SF-268 CNS
[13] = test system: SF-295 CNS
[14] = test system: SF-539 CNS
[15] = test system: SK-MEL-2 melanoma
[16] = test system: SK-MEL-28 melanoma
[17] = test system: SK-MEL-5 melanoma
[18] = test system: SK-OV-3 ovarian
[19] = test system: SN12C renal
[20] = test system: SNB-19 CNS
[21] = test system: SNB-75 CNS
[22] = test system: SR leukemia
[23] = test system: SW-620 colon
[24] = test system: T-47D breast
[25] = test system: TK-10 renal
[26] = test system: U251 glioblastoma
[27] = test system: UACC-257 melanoma
[28] = test system: UACC-62 melanoma

C=C1C(=O)OC(CCCCCCCC)C1C(=O)O (stereo unspecified)
GI50 [1]: 24.3 µM
TGI [1]: 50.3 µM
GI50 [2]: 17.1 µM
TGI [2]: 31.3 µM
GI50 [3]: 6.51 µM
TGI [3]: 19.2 µM
GI50 [4]: 22.3 µM
TGI [4]: 46.2 µM
GI50 [5]: 12.8 µM
TGI [5]: 26.2 µM
GI50 [6]: 16.9 µM
TGI [6]: 32.1 µM
GI50 [7]: 39.3 µM
TGI [7]: > 100 µM
GI50 [8]: 24.9 µM
TGI [8]: 54.9 µM
GI50 [9]: 21 µM
TGI [9]: 39.1 µM
GI50 [10]: 10.3 µM
TGI [10]: 22.1 µM
GI50 [11]: 11.5 µM
TGI [11]: 24.1 µM
GI50 [12]: 19 µM
TGI [12]: 37 µM
GI50 [13]: 23.5 µM
TGI [13]: 57.5 µM
GI50 [14]: 20.1 µM
TGI [14]: 34.9 µM
GI50 [15]: 28.7 µM
TGI [15]: 46.6 µM
GI50 [16]: 23.3 µM
TGI [16]: 46.8 µM
GI50 [17]: 18.3 µM
TGI [17]: 32.5 µM
GI50 [18]: 23.6 µM
TGI [18]: 45.2 µM
GI50 [19]: 19 µM
TGI [19]: 36.1 µM
GI50 [20]: 22.4 µM
TGI [20]: 47.3 µM
GI50 [21]: 16.1 µM
TGI [21]: 32.1 µM
GI50 [22]: 3.03 µM
TGI [22]: 9.89 µM
GI50 [23]: 18.7 µM
TGI [23]: 33.2 µM
GI50 [24]: 18.2 µM
TGI [24]: 32.3 µM
GI50 [25]: 34.3 µM
TGI [25]: > 100 µM
GI50 [26]: 20.6 µM
TGI [26]: 37.9 µM
GI50 [27]: 12.7 µM
TGI [27]: 27.3 µM
GI50 [28]: 33.9 µM
TGI [28]: > 100 µM
